The source made the active and inactive calls. The calls are words filed in the database; no cut-off is given here.
Legend:
Mus musculus [1] = experiment: Anticonvulsant activity in KunMing mouse assessed as protection against maximal electroshock-induced seizure at 100 mg/kg, ip after 0.5 hrs; type: functional, organism-based; set-up: dose 100 mg/kg
Mus musculus [2] = experiment: Protective index, ratio of TD50 for ip dosed KunMing mouse to ED50 for ip dosed KunMing mouse; type: functional
[3] = Neurotoxicity in ip dosed KunMing mouse assessed as inability of animal to maintain equilibrium on rod for at least 1 min; type: toxicity, organism-based; settings: in vivo
Mus musculus [4] = experiment: Anticonvulsant activity in ip dosed KunMing mouse assessed as protection against maximal electroshock-induced seizure after 0.5 hrs; type: functional
Mus musculus [5] = experiment: Anticonvulsant activity in KunMing mouse assessed as protection against maximal electroshock-induced seizure at 15 mg/kg, ip after 0.5 hrs; type: functional, organism-based; set-up: dose 15 mg/kg
Mus musculus [6] = experiment: Anticonvulsant activity in KunMing mouse assessed as protection against maximal electroshock-induced seizure at 30 mg/kg, ip after 0.5 hrs; type: functional, organism-based; set-up: dose 30 mg/kg
Mus musculus [7] = experiment: Anticonvulsant activity in KunMing mouse assessed as protection against maximal electroshock-induced seizure at 7.5 mg/kg, ip after 0.5 hrs; type: functional, organism-based; set-up: dose 7.5 mg/kg
Mus musculus [8] = experiment: Anticonvulsant activity against bicuculline-induced seizure in KunMing mouse assessed as lethality at 30 mg/kg, ip administered 30 mins before bicuculline challenge measured after 30 mins; type: functional; settings: route intraperitoneal
Mus musculus [9] = experiment: Anticonvulsant activity against bicuculline-induced seizure in KunMing mouse assessed as tonic seizure level at 30 mg/kg, ip administered 30 mins before bicuculline challenge measured after 30 mins; type: functional; settings: route intraperitoneal
Mus musculus [10] = experiment: Anticonvulsant activity against bicuculline-induced seizure in KunMing mouse assessed as clonic seizure level at 30 mg/kg, ip administered 30 mins before bicuculline challenge measured after 30 mins; type: functional; settings: route intraperitoneal
Mus musculus [11] = experiment: Anticonvulsant activity against 3-mercaptopropionic acid-induced seizure in KunMing mouse assessed as tonic seizure level at 30 mg/kg, ip administered 30 mins before 3-mercaptopropionic acid challenge measured after 30 mins; type: functional; settings: route intraperitoneal
Mus musculus [12] = experiment: Anticonvulsant activity against 3-mercaptopropionic acid-induced seizure in KunMing mouse assessed as clonic seizure level at 30 mg/kg, ip administered 30 mins before 3-mercaptopropionic acid challenge measured after 30 mins; type: functional; settings: route intraperitoneal
Mus musculus [13] = experiment: Anticonvulsant activity against pentylenetetrazole-induced seizure in KunMing mouse assessed as lethality at 30 mg/kg, ip administered 30 mins before pentylenetetrazole challenge measured after 30 mins; type: functional; settings: route intraperitoneal
Mus musculus [14] = experiment: Anticonvulsant activity against pentylenetetrazole-induced seizure in KunMing mouse assessed as tonic seizure level at 30 mg/kg, ip administered 30 mins before pentylenetetrazole challenge measured after 30 mins; type: functional; settings: route intraperitoneal
Mus musculus [15] = experiment: Anticonvulsant activity against pentylenetetrazole-induced seizure in KunMing mouse assessed as clonic seizure level at 30 mg/kg, ip administered 30 mins before pentylenetetrazole challenge measured after 30 mins; type: functional; settings: route intraperitoneal
Mus musculus [16] = experiment: Anticonvulsant activity against 3-mercaptopropionic acid-induced seizure in KunMing mouse assessed as lethality at 30 mg/kg, ip administered 30 mins before 3-mercaptopropionic acid challenge measured after 30 mins; type: functional; settings: route intraperitoneal

## CCCCCCCCCCCCOc1ccc2c(c1)SCc1n[nH]c(=O)n1-2
Mus musculus [1]
  Activity: inactive

## CCCCCOc1ccc2c(c1)SCc1n[nH]c(=O)n1-2
Mus musculus [2]
  PI: 11.5
[3]
  TD50 at 1 min: 81.8 mg/kg
Mus musculus [4]
  ED50: 7.1 mg/kg
Mus musculus [5]
  Activity: Active
Mus musculus [6]
  Activity: Active
Mus musculus [1]
  Activity: Active

## CCCCCCOc1ccc2c(c1)CCC(=O)N2
Mus musculus [2]
  PI: 2.4
Mus musculus [4]
  ED50: 24 mg/kg

## O=c1[nH]nc2n1-c1ccc(OCc3ccc(Cl)cc3)cc1SC2
Mus musculus [5]
  Activity: inactive

## CCCOc1ccc2c(c1)SCc1n[nH]c(=O)n1-2
Mus musculus [2]
  PI: 7
[3]
  TD50 at 1 min: 84.9 mg/kg
Mus musculus [4]
  ED50: 12.2 mg/kg
Mus musculus [6]
  Activity: Active
Mus musculus [1]
  Activity: Active

## CCCCOc1ccc2c(c1)SCc1n[nH]c(=O)n1-2
Mus musculus [2]
  PI: 14.9
[3]
  TD50 at 1 min: 118 mg/kg
Mus musculus [4]
  ED50: 7.9 mg/kg
Mus musculus [5]
  Activity: Active
Mus musculus [6]
  Activity: Active
Mus musculus [1]
  Activity: Active

## CCCCCCCOc1ccc2c(c1)SCc1n[nH]c(=O)n1-2
Mus musculus [7]
  Activity: inactive

## O=c1[nH]nc2n1-c1ccc(OCc3cccc(F)c3)cc1SC2
Mus musculus [7]
  Activity: inactive
Mus musculus [1]
  Activity: Active

## CCCCCCCCCCCCCCOc1ccc2c(c1)SCc1n[nH]c(=O)n1-2
Mus musculus [1]
  Activity: inactive

## O=c1[nH]nc2n1-c1ccc(OCc3ccccc3Cl)cc1SC2
Mus musculus [1]
  Activity: inactive

## NC(=O)N1c2ccccc2C=Cc2ccccc21 [CARBAMAZEPINE]
Mus musculus [8]
  Activity: 60%
Mus musculus [9]
  Activity: 0%
Mus musculus [10]
  Activity: 100%
Mus musculus [11]
  Activity: 0%
Mus musculus [12]
  Activity: 100%
Mus musculus [13]
  Activity: 10%
Mus musculus [14]
  Activity: 0%
Mus musculus [15]
  Activity: 100%
Mus musculus [2]
  PI: 6.4
Mus musculus [4]
  ED50: 11.8 mg/kg

## O=c1[nH]nc2n1-c1ccc(OCc3cccc(Cl)c3)cc1SC2
Mus musculus [5]
  Activity: inactive
Mus musculus [1]
  Activity: Active

## CCCCCCOc1ccc2c(c1)SCc1n[nH]c(=O)n1-2
Mus musculus [2]
  PI: 11.3
[3]
  TD50 at 1 min: 89.6 mg/kg
Mus musculus [4]
  ED50: 7.9 mg/kg
Mus musculus [5]
  Activity: Active
Mus musculus [6]
  Activity: Active
Mus musculus [1]
  Activity: Active

## Cc1ccc(COc2ccc3c(c2)SCc2n[nH]c(=O)n2-3)cc1
Mus musculus [7]
  Activity: inactive
Mus musculus [6]
  Activity: Active
Mus musculus [1]
  Activity: Active

## O=c1[nH]nc2n1-c1ccc(OCc3ccccc3)cc1SC2
Mus musculus [2]
  PI: 7.8
[3]
  TD50 at 1 min: 94.7 mg/kg
Mus musculus [4]
  ED50: 12.2 mg/kg
Mus musculus [1]
  Activity: Active

## CCCCCCCCOc1ccc2c(c1)SCc1n[nH]c(=O)n1-2
Mus musculus [1]
  Activity: inactive

## CCCCCOc1ccc2c(c1)SCC(=O)N2
Mus musculus [2]
  PI: 8.9
[3]
  TD50 at 1 min: 306 mg/kg
Mus musculus [4]
  ED50: 34.1 mg/kg

## O=c1[nH]nc2n1-c1ccc(OCc3c(Cl)cccc3Cl)cc1SC2
Mus musculus [5]
  Activity: inactive

## N#Cc1ccccc1COc1ccc2c(c1)SCc1n[nH]c(=O)n1-2
Mus musculus [1]
  Activity: inactive

## CCOc1ccc2c(c1)SCc1n[nH]c(=O)n1-2
Mus musculus [6]
  Activity: inactive
Mus musculus [1]
  Activity: Active

## O=c1[nH]nc2n1-c1ccc(OCc3ccc(F)cc3)cc1SC2
Mus musculus [8]
  Activity: 30%
Mus musculus [9]
  Activity: 10%
Mus musculus [10]
  Activity: 90%
Mus musculus [16]
  Activity: 60%
Mus musculus [11]
  Activity: 0%
Mus musculus [12]
  Activity: 100%
Mus musculus [13]
  Activity: 80%
Mus musculus [14]
  Activity: 10%
Mus musculus [15]
  Activity: 100%
Mus musculus [2]
  PI: 15.4
[3]
  TD50 at 1 min: 141 mg/kg
Mus musculus [4]
  ED50: 9.2 mg/kg
Mus musculus [6]
  Activity: Active
Mus musculus [1]
  Activity: Active

## O=c1[nH]nc2n1-c1ccc(OCc3cccc(C(F)(F)F)c3)cc1SC2
Mus musculus [6]
  Activity: inactive

## O=c1[nH]nc2n1-c1ccc(OCc3ccccc3F)cc1SC2
Mus musculus [7]
  Activity: inactive
Mus musculus [1]
  Activity: Active

From ChEMBL document CHEMBL2429820, “Synthesis and anticonvulsant activity evaluation of 7-alkoxy-2,4-dihydro-1H-benzo[b][1,2,4]triazolo[4,3-d][1,4]thiazin-1-ones in various murine experimental seizure models” (Med Chem Res, 2013)
